Reference: patent US20230094076A1, “COMBINATION THERAPY” (GlaxoSmithKline Intellectual Property Development Limited, priority 2016, published 2023)

System: AML cell lines
Test: Preliminary RNA-seq studies
Assay type: cell-based
Settings: chemokines, cytokines, interferons, interleukins
Excerpt: PRMT1 has been implicated in immune regulation through modulation of the TLR receptor signaling pathway, whereby PRMT1 knock-down results in increased expression of pro-inflammatory molecules (Tikhanovich, I. et al. Dynamic Arginine Methylation of Tumor Necrosis Factor (TNF) Receptor-associated Factor 6 Regulates Toll-like Receptor Signaling. J Biol Chem 290, 22236-22249, doi:10.1074.jbc.M115.653543 (2015)).

Compound: CNCCN(C)Cc1c[nH]nc1[C@H]1CC[C@@]2(CC1)CC(C)(C)CO2 [Compound D]
- expression of immune response gene families: altered expression
